Measurements from patent US6809110B2 (Hoffmann-La Roche Inc., priority 2002, dated 2004).

Tests used:
PPARγ [1] = molecular target: T1, PPARγ (Mus musculus, UniProt P37238); assay: PPARγ radioligand binding assay (SPA, GST-PPARγ-LBD fusion protein); set-up: PPARγ (aa 174 to 476); conditions: SPA beads
T1 sequence (P37238 204-505): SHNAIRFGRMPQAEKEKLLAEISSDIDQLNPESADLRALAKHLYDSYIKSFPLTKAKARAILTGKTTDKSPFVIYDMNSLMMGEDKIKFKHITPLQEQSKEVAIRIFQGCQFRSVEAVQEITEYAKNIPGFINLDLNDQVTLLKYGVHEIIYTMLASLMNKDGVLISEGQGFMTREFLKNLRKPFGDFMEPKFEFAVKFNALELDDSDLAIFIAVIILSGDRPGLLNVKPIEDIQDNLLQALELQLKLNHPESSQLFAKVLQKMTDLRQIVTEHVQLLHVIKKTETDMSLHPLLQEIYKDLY
From the text: (§1) Full-length cDNA clones for human PPARα and mouse PPARγ were obtained by RT-PCR from human adipose and mouse liver cRNA, respectively, cloned into plasmid vectors and verified by DNA sequencing. (With respect to cloning of PPARα cDNA, see Sher, T. et al. “cDNA doning, chromosomel mapping and functional characterization of the human peroxisome proliferator activated receptor”, Biochemistry 32(21) 5598-5604 (1993); with respect to cloning of PPARγ2 cDNA, see Tontonoy P., et al. “mPPAR gamma 2: tissue-specific regulator of an adipocyte enhancer”, Genes Dev. 8(10) 1224-34 (1994).) Bacterial and mammalian expression vectors were constructed to produce glutathione-s-transferase (GST) and Gal4 DNA binding domain proteins fused to the ligand binding domains (LBD) of PPARγ (aa 174 to 476) and PPARα (aa 167 to 469). To accomplish this, the portions of the cloned sequences encoding the LBDs were amplified from the full-length clones by PCR and then subcloned into the plasmid vectors. Final clones were verified by DNA sequence analysis.
(§2) Induction, expression, and purification of GST-LBD fusion proteins were performed in E. coli strain BL21(pLysS) cells by standard methods (Ref: Current Protocols in Molecular Biology, Wiley Press, edited by Ausubel et al.).
(§3) PPARγ receptor binding was assayed in TKE50 (50 mM Tris-HCl, pH 8, 50 mM KCl, 2 mM EDTA, 0.1 mg/ml fatty acid-free BSA and 10 mM DTT). For each 96 well reaction an 140 ng equivalent of GST-PPARγ-LBD fusion protein was bound to 10 ug SPA beads (PharmaciaArnersham) in a final volume of 50 ul by shaking. The resulting slurry was incubated for 1 h at RT and centrifuged for 2 min at 1300 g. The supernatant containing unbound protein was removed and the semidry pellet containing the recptor-coated beads was resolved in 50 ul of TKE. For radioligand binding e.g. 10000 dpm 2(S)-(2-benzoyl-phenylamino)-3-{4-[1,1-ditritio-2-(5-methyl-2-phenyl-oxazol-4-yl)-ethoxy]-phenyl}-propionic acid in 50 ul were added, the reaction incubated at RT for 1 h and scintillation proximity counting performed. All binding assays were performed in 96 well plates and the amount of bound ligand measured on a Packard TopCount using OptiPlates (Packard). Nonspecific binding was determined in the presence of 10^−4 M unlabelled compound. Dose response curves were done in triplicates within a range of concentration from 10^−10 M to 10^−4 M.

PPARα [2] = molecular target: T2, PPARα (Homo sapiens, UniProt Q07869); assay: Luciferase transcriptional reporter gene assay, BHK21 cells transfected with pFA-PPARα-LBD; format: cell-based; set-up: PPARα (aa 167 to 469); conditions: 24 hours incubation
T2 sequence (Q07869 167-468 limits assumed): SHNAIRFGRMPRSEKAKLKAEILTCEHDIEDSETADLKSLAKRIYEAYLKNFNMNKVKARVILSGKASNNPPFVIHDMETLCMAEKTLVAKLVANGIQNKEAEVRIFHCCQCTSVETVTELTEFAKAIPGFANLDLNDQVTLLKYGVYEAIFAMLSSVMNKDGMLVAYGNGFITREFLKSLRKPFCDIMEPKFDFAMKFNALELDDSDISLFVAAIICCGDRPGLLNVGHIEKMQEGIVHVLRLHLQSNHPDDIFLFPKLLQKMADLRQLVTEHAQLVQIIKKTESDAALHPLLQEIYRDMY
Method: (§4) Full-length cDNA clones for human PPARα and mouse PPARγ were obtained by RT-PCR from human adipose and mouse liver cRNA, respectively, cloned into plasmid vectors and verified by DNA sequencing. […] To accomplish this, the portions of the cloned sequences encoding the LBDs were amplified from the full-length clones by PCR and then subcloned into the plasmid vectors. Final clones were verified by DNA sequence analysis.
(§5) Baby hamster kidney cells (BHK21 ATCC CCL10) were grown in DMEM medium containing 10% FBS at 37° C. in a 95%02:5%CO2 atmosphere. Cells were seeded in 6 well plates at a density of 10^5 Cells/well and then batch-transfected with either the pPA-PPARγ-LBD or pFA-PPARα-LBD expression plasmids plus a reporter plasmid and an expression plasmid encoding the secretable form of alkaline phosphatase (SEAP) as a normalization control. […] Six hours following transfection, the cells were harvested by trypsinization and seeded in 96 well plates at a density of 10^4 cells/well. After 24 hours to allow attachment of cells, the medium was removed and replaced with 100 ul of phenol red-free medium containing the test substances or control ligands (final DMSO concentration: 0.1%). Following incubation of the cells for 24 hours with substances, 50 ul of the supernatant was recovered and analyzed for SEAP activity (Roche Molecular Biochemicals). The remainder of the supernatant was discarded, 50 ul PBS was added per well followed by one volume of Luciferase Constant-Light Reagent (Roche Molecular Biochemicals) to lyse the cells and initiate the luciferase reaction. Luminescence for both SEAP and luciferase was measured in a Packard TopCount. Luciferase activity was normalized to the SEAP control and transcriptional activation in the presence of a test substance was expressed as fold-activation over cells incubated in the absence of the substance. EC50 values were calculated using the XLfit program (ID Business Solutions Ltd. UK).

PPARγ [3] = molecular target: T1, PPARγ; assay: Luciferase transcriptional reporter gene assay, BHK21 cells transfected with PPARγ-LBD expression plasmid; format: cell-based; set-up: PPARγ (aa 174 to 476) and PPARα (aa 167 to 469); expressed in transfected cells; host or cells: BHK21 (ATCC CCL10); conditions: 24 hours incubation
From the text: as §1, §5

PPARα [4] = molecular target: T2, PPARα; assay: PPARα radioligand binding assay (SPA, GST-PPARα-LBD fusion protein); set-up: PPARγ (aa 174 to 476) and PPARα (aa 167 to 469); made in house; host or cells: E. coli BL21(pLysS); conditions: SPA beads
From the text: as §4, §2
as §3, with “PPARα receptor” for “PPARγ receptor”, “reaction a” for “reaction an”, “of GST-PPARα-LBD” for “of GST-PPARγ-LBD”, “beads (PharmaciaAmersham)” for “beads (PharmaciaArnersham)”, “dpm of” for “dpm”, “2(S)-(2-benzoyl-phenylamino)-3-{4-[1,1-ditritio-2-(5-methyl-2-phenyl-oxazol-4-yl)-ethoxy]-phenyl}-propionic acid or 2,3-ditritio-2(S)-methoxy-3-(4-(2-(5-methyl-2-phenyl-oxazol-4-yl)-ethoxy]-benzo[b]thiophen-7-yl}-propionic” for “2(S)-(2-benzoyl-phenylamino)-3-{4-[1,1-ditritio-2-(5-methyl-2-phenyl-oxazol-4-yl)-ethoxy]-phenyl}-propionic”

PPARα [5] = molecular target: T2, PPARα; assay: Luciferase transcriptional reporter gene assay, BHK21 cells transfected with pFA-PPARα-LBD; format: cell-based; conditions: 24 hours incubation
Method: as §4
Baby hamster kidney cells (BHK21 ATCC CCL10) were grown in DMEM medium containing 10% FBS at 37° C. in a 95%02:5%CO2 atmosphere. Cells were seeded in 6 well plates at a density of 10^5 Cells/well and then batch-transfected with either the pPA-PPARγ-LBD or pFA-PPARα-LBD expression plasmids plus a reporter plasmid and an expression plasmid encoding the secretable form of alkaline phosphatase (SEAP) as a normalization control. […] Following incubation of the cells for 24 hours with substances, 50 ul of the supernatant was recovered and analyzed for SEAP activity (Roche Molecular Biochemicals). […] Luminescence for both SEAP and luciferase was measured in a Packard TopCount. Luciferase activity was normalized to the SEAP control and transcriptional activation in the presence of a test substance was expressed as fold-activation over cells incubated in the absence of the substance. EC50 values were calculated using the XLfit program (ID Business Solutions Ltd. UK).

PPARγ [6] = molecular target: T1, PPARγ; assay: PPARγ radioligand binding assay (SPA, GST-PPARγ-LBD fusion protein); conditions: SPA beads
From the text: Full-length cDNA clones for human PPARα and mouse PPARγ were obtained by RT-PCR from human adipose and mouse liver cRNA, respectively, cloned into plasmid vectors and verified by DNA sequencing. (With respect to cloning of PPARα cDNA, see Sher, T. et al. “cDNA doning, chromosomel mapping and functional characterization of the human peroxisome proliferator activated receptor”, Biochemistry 32(21) 5598-5604 (1993); with respect to cloning of PPARγ2 cDNA, see Tontonoy P., et al. “mPPAR gamma 2: tissue-specific regulator of an adipocyte enhancer”, Genes Dev. 8(10) 1224-34 (1994).) Bacterial and mammalian expression vectors were constructed to produce glutathione-s-transferase (GST) and Gal4 DNA binding domain proteins fused to the ligand binding domains (LBD) of PPARγ (aa 174 to 476) and PPARα (aa 167 to 469). To accomplish this, the portions of the cloned sequences encoding the LBDs were amplified from the full-length clones by PCR and then subcloned into the plasmid vectors. Final clones were verified by DNA sequence analysis. […]
PPARγ receptor binding was assayed in TKE50 (50 mM Tris-HCl, pH 8, 50 mM KCl, 2 mM EDTA, 0.1 mg/ml fatty acid-free BSA and 10 mM DTT). […] All binding assays were performed in 96 well plates and the amount of bound ligand measured on a Packard TopCount using OptiPlates (Packard). Nonspecific binding was determined in the presence of 10^−4 M unlabelled compound. […]

| SMILES | IC50 (PPARγ [1]) [nM] | EC50 (PPARα [2]) [nM] | EC50 (PPARγ [3]) [nM] | IC50 (PPARα [4]) [nM] | EC50 (PPARα [5]) [nM] | IC50 (PPARγ [6]) [nM] |
| --- | --- | --- | --- | --- | --- | --- |
| CCOC(Cc1ccc(OCc2csc(-c3ccc(C(C)C)cc3)n2)c(C)c1)C(=O)O (racemic) [Example 5, [rac]-2-Ethoxy-3-{4-[2-(4-isopropyl-phenyl)-thiazol-4-ylmethoxy]-3-methyl-phenyl}-propionic acid] | 96 | 400 | 389 | 133 | – | – |
| CCOC(Cc1ccc(OCCc2csc(-c3ccc(C(F)(F)F)cc3)n2)c(F)c1)C(=O)O (racemic) [Example 25, [rac]-2-Ethoxy-3-(3-fluoro-4-{2-[2-(4-trifluoromethyl-phenyl)-thiazol-4-yl]-ethoxy}-phenyl)-propionic acid] | 535 | 116 | 508 | 370 | – | – |
| CCOC(Cc1ccc(OCCc2nc(-c3ccc(OC(F)(F)F)cc3)sc2C)c(C)c1)C(=O)O (racemic) [Example 60, [rac]-2-ethoxy-3-(3-methyl-4-{2-[5-methyl-2-(4-trifluoromethoxy-phenyl)-thiazol-4-yl]-ethoxy}-phenyl)-propionic acid] | 42 | 748 | 411 | 37 | – | – |
| CCOC(Cc1ccc(OCCc2nc(-c3cc(OC)cc(OC)c3)sc2C)c(OC)c1)C(=O)O (racemic) [Example 64] | – | – | 281 | 95 | 513 | 84 |
| CCOC(Cc1ccc(OCCCc2nc(-c3ccc(C(C)(C)C)cc3)sc2C)cc1C)C(=O)O (racemic) [Example 102, [rac]-3-(4-{3-[2-(4-tert-Butyl-phenyl)-5-methyl-thiazol-4-yl]-propoxy}-2-methyl-phenyl)-2-ethoxy-propionic acid] | 20 | 215 | 42 | 15 | – | – |
| CCO[C@@H](Cc1ccc(OCc2csc(-c3cccc(Cl)c3)n2)cc1C)C(=O)O [Example 19, (2S)-3-{4-[2-(3-Chloro-phenyl)-thiazol-4-ylmethoxy]-2-methyl-phenyl}-2-ethoxy-propionic acid] | 179 | 71 | 60 | 89 | – | – |
| CCO[C@@H](Cc1ccc(OCc2csc(-c3ccc(Cl)cc3)n2)cc1C)C(=O)O [Example 20, (2S)-3-{4-[2-(4-Chloro-phenyl)-thiazol-4-ylmethoxy]-2-methyl-phenyl}-2-ethoxy-propionic acid] | 738 | 27 | 209 | 24 | – | – |

Further molecules by falling EC50 (PPARγ [3]), results first:

| IC50 (PPARγ [1]) [nM] | EC50 (PPARα [2]) [nM] | EC50 (PPARγ [3]) [nM] | IC50 (PPARα [4]) [nM] | EC50 (PPARα [5]) [nM] | IC50 (PPARγ [6]) [nM] | SMILES |
| --- | --- | --- | --- | --- | --- | --- |
| – | – | 1580 | 114 | 54 | 925 | CCOC(Cc1ccc(OCc2csc(-c3ccc(Cl)cc3)n2)c2ccoc12)C(=O)O (racemic) [Example 95] |
| 457 | 77 | 608 | 109 | – | – | CCOC(Cc1ccc(OCc2csc(-c3ccc(Cl)cc3)n2)cc1C)C(=O)O (racemic) [Example 14, [rac]-3-{4-[2-(4-chloro-phenyl)-thiazol-4-ylmethoxy]-2-methyl-phenyl}-2-ethoxy-propionic acid] |
| 52 | 2110 | 543 | 50 | – | – | CCOC(Cc1ccc(OCCCc2csc(-c3ccc(C(C)C)cc3)n2)c(F)c1)C(=O)O (racemic) [Example 43, [rac]-2-Ethoxy-3-(3-fluoro-4-{3-[2-(4-isopropyl-phenyl)-thiazol-4-yl]-propoxy}-phenyl)-propionic acid] |
